Assay results: patent US20230219886A1, “NOVEL SELENO-NSAID ANALOGS AND USES THEREOF” (THE PENN STATE RESEARCH FOUNDATION, priority 2020, published 2023)
Read-outs that look alike come from different tables or passages of the source.

What was measured:
[1] = system: PANC-1 (pancreatic carcinoma); assay: MTT cell viability assay, Panc-1; settings: Homo sapiens, PANC-1, 48 h, read-out: cell viability
Experimental: (§1) Cell Culture Conditions. The cell lines were obtained from the American Type Culture Collection (ATCC). PANC-1 and Caco-2 cell lines were maintained in DMEM medium (Gibco); HT-29, HCT-116 and RKO cells were maintained in McCoy's 5A medium (Gibco); and DU-145 and H1299 cells were maintained in RPMI 1640 medium (Gibco), supplemented with 10% fetal bovine serum (FBS; Gibco) and 1% antibiotics (10.00 units/mL penicillin and 10.00 mg/mL streptomycin; Gibco). Cells were preserved in tissue culture flasks at 37° C. and 5% CO2. Culture medium was replaced every three days.
(§2) Cell Viability Assay. The effect of each compound on cell viability was tested using the MTT assay (81). Briefly, 9000 cells/well were grown in 96-well plates for 12 h. Then these cells were incubated with either DMSO (control) or nine different concentration between 0.01-50 μM of the test compounds for 24, 48, and 72 h. Three hours before the termination point, 20 μL of MTT were added to measure cellular viability. The resultant formazan crystals were dissolved in 50 μL of DMSO, and absorbance was measured at 570 nm and 630 nm wavelengths. IC50, GI50, TGI and LC50 values were calculated using OriginPro 8.5.1.
(§3) Evaluation of the antiproliferative activities of the novel molecules. […] These four cell lines were treated with each compound at three concentrations (5, 25 and 50 μM) for 48 h.

HT-29 (CRC) = assay: MTT cell viability assay, HT-29; settings: for GI50 / IC50 / viability at 5 µM / viability at 25 µM / viability at 50 µM: Homo sapiens; for viability at 5 µM / viability at 25 µM / viability at 50 µM: read-out: cell viability
Experimental: as §1, §2, §3

[2] = system: DU-145 (prostate carcinoma); assay: MTT cell viability assay, DU-145; settings: Homo sapiens, DU-145, 48 h, read-out: cell viability
Experimental: as §1, §2, §3

H1299 (lung carcinoma) = assay: MTT cell viability assay, H1299; settings: Homo sapiens, NCI-H1299, 48 h, read-out: cell viability
Experimental: as §1, §2, §3

HCT-116 CRC cells = assay: MTT cell viability assay, HCT-116; format: cell-based, human; settings: Homo sapiens
Experimental: as §1, §2

CACO-2 CRC cells = assay: cells; settings: for IC50: Homo sapiens
Experimental: as §1, §2

RKO CRC cells = assay: cells; settings: Homo sapiens
Experimental: as §1, §2

Row | SMILES | viability at 5 µM [1] | viability at 25 µM [1] | viability at 50 µM [1] | IC50 (HT-29 (CRC); HT-29, 24 h) | IC50 (HT-29 (CRC); HT-29, 48 h) | viability at 5 µM (HT-29 (CRC); HT-29, 48 h) | viability at 25 µM (HT-29 (CRC); HT-29, 48 h) | viability at 50 µM (HT-29 (CRC); HT-29, 48 h) | IC50 (HT-29 (CRC); HT-29, 72 h) | viability at 5 µM [2] | viability at 25 µM [2] | viability at 50 µM [2] | viability at 5 µM (H1299 (lung carcinoma)) | viability at 25 µM (H1299 (lung carcinoma)) | viability at 50 µM (H1299 (lung carcinoma)) | IC50 (CACO-2 CRC cells; Caco-2, 24 h) | IC50 (CACO-2 CRC cells; Caco-2, 48 h) | IC50 (CACO-2 CRC cells; Caco-2, 72 h) | IC50 (RKO CRC cells; 24 h) | IC50 (RKO CRC cells; 48 h) | further results
1 | CC(=O)Oc1ccccc1C(=O)O [ASA, aspirin, reference compound] | 86.7 ± 5.4% | 63.8 ± 3.1% | 68.6 ± 5.1% | > 50 µM | > 50 µM | 73.1 ± 13% | 57.2 ± 11.3% | 35.5 ± 7.7% | > 50 µM | 89.8 ± 11% | 85.3 ± 25.1% | 90.9 ± 24.6% | 44.1 ± 4.4% | 51.1 ± 1.6% | 58.3 ± 3.6% | > 50 µM | > 50 µM | > 50 µM | > 50 µM | > 50 µM | TGI (HT-29 (CRC); HT-29, 24 h): >50 µM; TGI (HT-29 (CRC); HT-29, 48 h): >50 µM; TGI (HT-29 (CRC); HT-29, 72 h): >50 µM; GI50 (HT-29 (CRC); HT-29, 24 h): > 50 µM; GI50 (HT-29 (CRC); HT-29, 48 h): > 50 µM; GI50 (HT-29 (CRC); HT-29, 72 h): > 50 µM; IC50 (HCT-116 CRC cells; HCT-116, 24 h, read-out: IC50): > 50 µM; IC50 (HCT-116 CRC cells; HCT-116, 48 h, read-out: IC50): > 50 µM; IC50 (HCT-116 CRC cells; HCT-116, 72 h, read-out: IC50): > 50 µM; IC50 (RKO CRC cells; 72 h): > 50 µM
2 | CC[Se]C(=O)c1ccccc1OC(C)=O [Compound 1b, 2-((ethylselanyl)carbonyl)phenyl acetate] | – | – | – | > 50 µM | 4.2 ± 0.4 µM | – | – | – | 4.2 ± 0.9 µM | – | – | – | – | – | – | > 50 µM | > 50 µM | > 50 µM | > 50 µM | > 50 µM | IC50 (HCT-116 CRC cells; HCT-116, 24 h, read-out: IC50): > 50 µM; IC50 (HCT-116 CRC cells; HCT-116, 48 h, read-out: IC50): 13.2 ± 2.6 µM; IC50 (HCT-116 CRC cells; HCT-116, 72 h, read-out: IC50): 6.8 ± 4.2 µM; effect on CACO-2 viability (CACO-2 CRC cells; Caco-2): no effect; IC50 (RKO CRC cells; 72 h): > 50 µM
3 | CC(=O)Oc1ccccc1C(=O)[Se]Cc1ccccc1 [Compound 1c, 2-((benzylselanyl)carbonyl)phenyl acetate] | – | – | – | > 50 µM | 4.8 ± 0.2 µM | – | – | – | 4.8 ± 0.1 µM | – | – | – | – | – | – | > 50 µM | > 50 µM | 11.8 ± 5.9 µM | > 50 µM | 10.4 ± 0.1 µM | IC50 (HCT-116 CRC cells; HCT-116, 24 h): > 50 µM; IC50 (HCT-116 CRC cells; HCT-116, 48 h): 8 ± 2.1 µM; IC50 (HCT-116 CRC cells; HCT-116, 72 h): 8.2 ± 2.2 µM; IC50 (RKO CRC cells; 72 h): 5 ± 0.1 µM
4 | C[Se]C(=O)c1cc(-c2ccc(F)cc2F)ccc1O [Compound 2a, Se-methyl 2′,4′-difluoro-4-hydroxy-[1,1′-biphenyl]-3-carboselenoate] | 53.5 ± 9.7% | 38.5 ± 8.1% | 39.1 ± 11.1% | – | – | 46.6 ± 11.9% | 23.5 ± 7.2% | 28.4 ± 2.7% | – | 53.9 ± 14.1% | 40.7 ± 8.3% | 39.5 ± 2.7% | 96.8 ± 19.8% | 80 ± 10.7% | 79.9 ± 9% | – | – | – | – | – | –
5 | COc1ccc2cc([C@H](C)C(=O)[Se]C)ccc2c1 [Compound 3a, Se-methyl (S)-2-(6-methoxynaphthalen-2-yl)propaneselenoate] | 46.7 ± 9.7% | 34.4 ± 6.3% | 30.5 ± 6% | – | – | 52.2 ± 30.9% | 41.8 ± 26.4% | 46.4 ± 24.7% | – | 56.2 ± 18.4% | 35 ± 16.1% | 31.4 ± 23.6% | 48.3 ± 5.4% | 42.4 ± 2.7% | 34.3 ± 1.3% | – | – | – | – | – | –
6 | C[Se]C(=O)c1ccccc1Nc1cccc(C)c1C [Compound 4a, Se-methyl 2-((2,3-dimethylphenyl)amino)benzoselenoate] | 47.5 ± 5.9% | 26.3 ± 3.9% | 22.6 ± 3% | – | – | 41.6 ± 6.4% | 16.6 ± 4.7% | 22.6 ± 0.7% | – | 58 ± 14.1% | 29.7 ± 10.9% | 32 ± 6.5% | 98.7 ± 0.4% | 99.4 ± 0.3% | 100% | – | – | – | – | – | –
